According to article PMC11280390, “Synthesis of Nitrostyrylthiazolidine-2,4-dione Derivatives Displaying Antileishmanial Potential” (Pharmaceuticals, 2024):
Values after ≈ are worked out from the molar mass of the structure shown. Values joined by “and” are separate entries in the source; they are usually repeats but may differ in a detail not shown here. Identical values can stand only once. Like-named read-outs stand apart in the source and are kept apart here.

How the values were obtained:
[1] = In vitro cytotoxicity on the human monocyte THP-1 cell line (MTT, 72 h); type: cell-based; settings: human; THP-1, 72 h, MTT
Protocol: (§1) The undifferentiated THP1 human monocyte cells (acute monocytic leukemia cell line purchased from ATCC, ref TIB-202) were routinely grown in RPMI 1640 medium (Life Technologies, Saint-Aubin, France) supplemented with 10% FCS (Life Technologies, Saint-Aubin, France), 100 U/mL penicillin, 100 µg/mL streptomycin and 2 mM L-glutamine at 37 °C, 5% CO2. The culture was maintained between 3.10^5 and 8.10^5 cells/mL. […] Wells were washed with RPMI and 100 µL of fresh complete medium was added. […] Then, 100 µL of MTT solution (0.5 mg/mL in medium) was added to each well. Cells were incubated for 2 h at 37 °C. […] Plates were shaken vigorously (700 rpm) for 10 min. […] (Palo Alto, CA, USA).

HepG2 cell line = assay: In vitro cytotoxicity on the human hepatic HepG2 cell line (MTT, 72 h); settings: for CC50: read-out: HepG2 Cytotoxicity CC50, HepG2, 72 h, MTT; for Selectivity INDEX (SI = CC50/EC50): HepG2 CC50 / L. infantum promastigote EC50
Protocol: (§2) HepG2 cell line (hepatocarcinoma cell line purchased from ATCC, ref HB-8065) was maintained at 37 °C, 5% CO2 with 90% humidity in MEM supplemented with 10% fetal bovine serum, 1% L-glutamine (200 mM) and penicillin (100 U/mL)/streptomycin ([…]) (complete MEM medium). The tested molecules’ cytotoxicity was assessed according to the method of Mosmann with slight modifications. Briefly, 5 × 10^3 cells in 100 μL of complete medium were inoculated into each well of 96-well plates and incubated at 37 °C in a humidified 5% CO2. After 24 h incubation, 100 μL of medium with various product concentrations dissolved in DMSO (final concentration less than 0.5% v/v) were added and the plates were incubated for 72 h at 37 °C. Triplicate assays were performed for each sample. Each plate well was then microscope-examined to detect possible precipitate formation before the medium was aspirated from the wells. Then, 100 μL of MTT (3-(4,5-dimethyl-2-thiazolyl)-2,5-diphenyl-2H-tetrazolium bromide) solution (0.5 mg/mL in medium without FCS) were then added to each well. Cells were incubated for 2 h at 37 °C, following which the MTT solution was removed and DMSO (100 μL) was added to dissolve the resulting blue formazan crystals. Plates were shaken vigorously (700 rpm) for 10 min. The absorbance was measured at 570 nm with 630 nm as reference wavelength using a TECAN Infinite F-200 spectrophotometer (Tecan Trading AG, Männedorf, Switzerland). DMSO was used as blank and doxorubicin (purchased from Sigma Aldrich, Saint Louis, MI, USA) as positive control. Cell viability was calculated as a percentage of control (cells incubated without compound). […] CC50 values represent the mean value calculated from three separate experiments.

[2] = test system: Leishmania infantum promastigotes; assay: In vitro antileishmanial activity on L. infantum promastigotes (MTT, 72 h); type: cell-based; settings: Leishmania infantum, read-out: Anti-L. infantum Promastigote Activity EC50
Protocol: Luciferase-expressing Leishmania infantum was kindly provided by Professor Thierry Lang of the Institut Pasteur. L. infantum promastigotes were routinely grown at 27 °C in Schneider’s Drosophila Medium (Dominique […] SAS, Bernolsheim, France) supplemented with 10% fetal calf serum, 2% human urine, sodium pyruvate 0.04 mM, hemin 0.1 µg/mL, HEPES 5 mM, streptomycin 100 µg/mL, penicillin 100 U/mL, L-glutamine 2 mM (culture medium). The in vitro evaluation of the antileishmanial activity of the tested compound on L. infantum promastigotes forms was assessed according to the Mosmann protocol with slight modifications. […] Appropriate controls treated with DMSO, Miltefosine, Amphotericin B and Fexinidazole sulfone (reference drugs purchased from Sigma-Aldrich, Saint-Louis, MO, USA) were added to each set of experiments. The plates were incubated at 27 °C for 72 h, Then, each plate-well was microscope-analyzed to detect any precipitate formation. Afterward, 20 µL of MTT (3-(4,5-dimethylthiazol-2-yl)-2,5-diphenyltetrazolium bromide) (Sigma-Aldrich, Saint-Louis, MI, USA) solution (5 mg/mL in PBS) were added to each well and incubated at 27 °C for 4 h. The reaction was then stopped by the addition of 100 µL of 10% sodium dodecyl sulfate—50% isopropanol. Plates were shaken vigorously at 400 rpm for 10 min. […] EC50 values represent the mean value calculated from at least three separate experiments.

[3] = In vitro cytotoxicity on the human hepatic HepG2 cell line (MTT, 72 h); settings: human
Protocol: as §2

[4] = test system: wild-type L. donovani (LdBOB) promastigotes; assay: Antileishmanial activity against wild-type L. donovani promastigotes; type: cell-based; settings: Leishmania donovani, read-out: EC50 Values, WT
Protocol: (§3) EC50 values were determined as previously described. Nifurtimox was used as a positive control for activation via NTR1 [38] while delamanid was used as a positive control for activation via NTR2 [39].

[5] = test system: L. donovani promastigotes overexpressing NTR2; assay: microbe, parasite or virus in culture; type: cell-based; settings: Leishmania donovani, read-out: EC50 Values, NTR2 OE
Protocol: as §3

[6] = test system: L. donovani promastigotes overexpressing NTR1; assay: microbe, parasite or virus in culture; type: cell-based; settings: Leishmania donovani, read-out: EC50 Values, NTR1 OE
Protocol: as §3

THP-1 cell line = assay: In vitro cytotoxicity on the human monocyte THP-1 cell line (MTT, 72 h); type: cell-based; settings: THP-1 CC50 / L. infantum promastigote EC50
Protocol: as §1

[7] = Aqueous solubility in PBS by shake-flask method; type: physicochemical; settings: 25 °C, pH 7.4, aqueous buffer, thermodynamic from solid, PBS pH 7.4, 25 °C
Protocol: Briefly, an excess of compound (approx. 2 mg) was stirred in PBS (0.5 mL, 0.15 M, pH 7.4) at 25 °C for 72 h. A 100 µL sample was drawn, any excess material removed by centrifugation, and diluted tenfold with methanol/water 1:1 before HPLC-UV quantification using a pre-established calibration curve (PLRP-S column (Agilent), 3 µm particle size, 100 A porosity, 50 × 2.1 mm internal dimensions). Eluent: isocratic acetonitrile/water/formic acid 80:20:0.1, 0.4 mL/min, detection at 320 nm, 2-µL injections).

[8] = Lipophilicity by Chromatographic Hydrophobicity Index (CHI); type: physicochemical; settings: pH 7.4, CHI; read-out: CHI logD7.4
Protocol: B: acetonitrile, at a flow rate of 0.300 mL/min and 0.5-µL injections. The validity of the CHI versus retention time was established on a reference mixture containing theophylline, phenyltetrazole, benzimidazole, acetophenone, propiophenone, butyrophenone and valerophenone.

[9] = HepG2 cells (hepatocarcinoma cell line, ATCC HB-8065), HepG2 Cytotoxicity CC50, HepG2, 72 h, MTT

Structure (SMILES) | CC50 at 72 h [1] [µM] | EC50 ([2]; L. infantum promastigotes, MTT) [µM] | CC50 at 72 h [3, 9] [µM] | Selectivity INDEX (SI = CC50/EC50) (HepG2 cell line) | melting point [°C] | other results
COc1cccc2c1C(=O)c1c(O)c3c(c(O)c1C2=O)C[C@@](O)(C(=O)CO)C[C@@H]3O[C@H]1C[C@H](N)[C@H](O)[C@H](C)O1 [Doxorubicin, reference compound] | 2.2 ± 0.1 |  |  |  |  | CC50 (HepG2 cell line): 0.2 ± 0.02 µM
CCCCCCCCCCCCCCCCOP(=O)([O-])OCC[N+](C)(C)C [Miltefosine, reference compound] | 30 ± 4 | 3.3 ± 0.8 |  |  |  | 
Cn1c([N+](=O)[O-])cnc1COc1ccc(S(C)(=O)=O)cc1 [Fexinidazole sulfone, reference compound] | > 200 | 3.1 ± 0.7 | > 200 | >64.5 |  | 
C[C@]1(COc2ccc(N3CCC(Oc4ccc(OC(F)(F)F)cc4)CC3)cc2)Cn2cc([N+](=O)[O-])nc2O1 [Delamanid] |  |  |  |  |  | EC50 [4]: 0.003 ± 0.0001 µM; EC50 [5]: 0.3 ± 0.001 nM; EC50 [6]: 2 ± 0.3 nM
N#CCN1C(=O)S/C(=C\c2cccc([N+](=O)[O-])c2)C1=O [Compound 14c, (Z)-2-(5-(3-Nitrobenzylidene)thiazolidine-2,4-dion-3-yl)acetonitrile] | 121 ± 9 | 7 ± 2.96 | 101 | 14 and 14.4 | 173 to 175 | Selectivity index (THP-1) (THP-1 cell line): 17; EC50 [4]: 22.1 µM; solubility at 72 h ([7]; read-out: PBS Solubility (log S) (converted)): 15.8 µM (≈ 4.58 µg/mL); solubility at 72 h ([7]; read-out: PBS solubility): 16 µM (≈ 4.63 µg/mL); CC50 (HepG2 cell line): 101 ± 19.3 µM; chromatographic logD [8]: 2.85; EC50 [5]: 18500 nM; EC50 [6]: 3780 ± 313 nM
O=C(CN1C(=O)S/C(=C\c2ccccc2[N+](=O)[O-])C1=O)Nc1ccccc1 [Compound 23b, (Z)-2-(5-(2-Nitrobenzylidene)thiazolidine-2,4-dion-3-yl)-N-phenylacetamide] |  | 11.6 ± 3.43 | 22.3 ± 0.59 | 1.9 | 186 to 188 | 
O=C(CN1C(=O)S/C(=C\c2ccccc2[N+](=O)[O-])C1=O)Nc1ccc(Cl)cc1 [Compound 27b, (Z)-N-(4-Chlorophenyl)-2-(5-(2-nitrobenzylidene)thiazolidine-2,4-dion-3-yl) acetamide] |  | 16.3 ± 3.85 | 34.6 ± 3.03 | 2.1 | 188 to 190 | 
O=C(CN1C(=O)S/C(=C\c2ccccc2[N+](=O)[O-])C1=O)c1ccccc1 [Compound 16b, (Z)-5-(2-Nitrobenzylidene)-3-(2-oxo-2-phenylethyl)thiazolidine-2,4-dione] |  | 5.57 ± 1.28 | 11 ± 2.28 | 2.0 | 156 to 158 | 
O=C(CN1C(=O)S/C(=C\c2cccc([N+](=O)[O-])c2)C1=O)c1ccccc1 [Compound 16c, (Z)-5-(3-Nitrobenzylidene)-3-(2-oxo-2-phenylethyl)thiazolidine-2,4-dione] |  | 3.22 ± 0.94 | > 12.5 | >3.9 | 160 to 162 | 
O=C(CN1C(=O)S/C(=C\c2ccccc2[N+](=O)[O-])C1=O)Nc1ccc([N+](=O)[O-])cc1 [Compound 26b, (Z)-2-(5-(2-Nitrobenzylidene)thiazolidine-2,4-dion-3-yl)-N-(4-nitroyphenyl) acetamide] |  |  |  | 2.1 | 213 to 215 | CC50 at 72 h [3]: 30.1 ± 3.94 µM; EC50 [2]: 14.6 ± 2.91 µM
C[C@@H]1[C@H](O)[C@@H](C)/C=C/C=C/C=C/C=C/C=C/C=C/C=C/[C@H](O[C@@H]2O[C@H](C)[C@@H](O)[C@H](N)[C@@H]2O)C[C@@H]2O[C@](O)(C[C@@H](O)C[C@@H](O)[C@H](O)CC[C@@H](O)C[C@@H](O)CC(=O)O[C@H]1C)C[C@H](O)[C@H]2C(=O)O [Amphotericin B, reference compound] | 17.6 ± 3 | 0.06 ± 0.02 |  |  |  | 
O=C(CN1C(=O)S/C(=C\c2ccccc2[N+](=O)[O-])C1=O)Nc1ccccc1Cl [Compound 28b, (Z)-N-(2-Chlorophenyl)-2-(5-(2-nitrobenzylidene)thiazolidine-2,4-dion-3-yl) acetamide] |  | 16.1 ± 4.32 | 23 ± 3.2 | 1.4 | 174 to 175 | 
CC1CS(=O)(=O)CCN1/N=C/c1ccc([N+](=O)[O-])o1 (stereo not shown) [Nifurtimox] |  |  |  |  |  | EC50 [4]: 3.11 ± 0.223 µM; EC50 [5]: 163 ± 11 nM; EC50 [6]: 144 ± 10 nM
O=C(CN1C(=O)S/C(=C\c2ccc([N+](=O)[O-])cc2)C1=O)Nc1ccc([N+](=O)[O-])cc1 [Compound 26d, (Z)-2-(5-(4-Nitrobenzylidene)thiazolidine-2,4-dion-3-yl)-N-(4-nitroyphenyl) acetamide] |  |  |  | >1.8 | 284 to 285 | CC50 at 72 h [3]: > 25 µM; EC50 [2]: 14.1 ± 2.8 µM
N#CCN1C(=O)S/C(=C\c2ccc([N+](=O)[O-])cc2)C1=O [Compound 14d, (Z)-2-(5-(4-Nitrobenzylidene)thiazolidine-2,4-dion-3-yl)acetonitrile] |  | 24.8 ± 6.09 | 109 ± 11 | 4.4 | 193 to 195 | 
